The values that follow come from patent US20250236616A1, “IMMUNOMODULATING AZALIDES” (Zoetis Services LLC, priority 2021, published 2025).

For one test, the system named is IL-1β. Put plainly: Whole bovine blood assay, LPS-induced IL-1β (inhibition / overstimulation). It counts as cell-based. The following applies: Bos taurus, 18 h, drug concentration giving overstimulation (OS) of LPS-induced IL-1β. In short, it runs like this: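 IL-1β was quantified by MSD U-Plex chemiluminescence in plasma and normalized to BCA total protein. Bovine blood was pretreated 4 h at 37 °C with compound dilutions before 18 h LPS challenge (1 μg/mL final). Rising IL-1β at high concentrations was recorded as overstimulation.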

In another test the test system is IL-6. Put plainly: Whole bovine blood assay, LPS-induced IL-6. It is filed as cell-based. To be noted: Bos taurus, fresh whole bovine blood, LPS stimulant; top drug concentration 250 μM.
The test system of another test is TNF-α. Put plainly: Whole bovine blood assay, LPS-induced TNF-α. It counts as cell-based. To be noted: Bos taurus, fresh whole bovine blood, LPS stimulant. The procedure, abridged:
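Fresh heparinized bovine whole blood was preincubated with compound 4 h at 37 °C, then stimulated with LPS (final 1 μg/mL) for 18 h at 37 °C. Plasma TNF-α was quantified by MSD U-Plex chemiluminescent immunoassay, normalized to total protein (BCA), and IC50 taken for LPS-induced TNF-α inhibition.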

For a further test, the system named is P. multocida 46572. Put plainly: In vivo mouse lung infection challenge model (murine efficacy), survival. On the set-up: species or system CD-1 female mice. The following applies: P. multocida 46572 intranasal challenge; 20 mg/kg subcutaneous; harmonized relative to vehicle (−) and M9 (+) controls. On the procedure:
The challenge organism was P. multocida 46572. Target challenge concentration was 5×10^2 CFU/mouse. Isolated colonies from overnight growth (37° C. with 5% CO2) on trypticase soy agar (TSA II) blood plates were transferred to room temperature Brain Heart Infusion Broth (BHIB). The broth culture was incubated 3.5-4 hours to approximately mid-log phase of growth, as measured by forward light scatter at 600 nm (OD600, 0.200). The culture was centrifuged to collect the bacterial pellet. The pellet was re-suspended in BHIB and adjusted to provide an approximate concentration of 2.7 log 10 colony forming units (CFU) in 0.04 mL at the highest concentration. The challenge inoculum concentration was confirmed by serial dilutions of the inoculum for CFU enumeration. On Day −5, CD −1 female mice were received. Mice were given standard rodent diet and water ad libitum. On Day 0, bacterial inoculum (0.04 mL) was administered to each mouse (n=36) intranasally. Compounds of the invention were dosed at 20 mg/kg (0.1 mL) in a buffered (˜pH 5.4) propylene glycol, monothioglycerol and water solution by subcutaneous injection. Animals were observed from Days 1-10. The study was terminated on Day 10. In addition, some treatment groups were sampled at 6, 24, and 48 hours post bacterial challenge for RNA sequence analysis of lung tissue.
The murine efficacy model (P.multocida challenge) was optimized, and the treatment group size was powered to be able to observe statistically significant improvement of survival to expected ranges for immunomodulatory compounds. The experimental design was a randomized complete block design. Mice were individually identified and treatment groups comingled within a cage, with every treatment group equally represented across cages. Mortality was the primary variable. Mortality data was analyzed using a generalized mixed model with fixed effect of treatment and random effect of block. Survival time was also analyzed using the SAS PHREG (survival analysis) procedure to examine whether there were significant differences between treatment groups and the control group. Numerous compounds of the invention and M9 (positive control) were tested in this model at a dose of 20 mg/kg (Table 3). Typical percent survival for no treatment control is in the range of 0-20% based on study to study variation in challenge inoculum and rate of infection. […] Mouse survival for M9 was about 90-100%, further supporting its residual antibacterial properties against the bacterial strain.

In the next test the test system is H. somni. Put plainly: MIC, H. somni strains. To be noted: H. somni strains. It is filed as cell-based. The source says:
Primary screening of the compounds of the invention included the evaluation of antibacterial activity of analogs through determination of microbial inhibition concentration (MIC) as per CLSI guidelines. The screening panel included the relevant BRD pathogens: 1) M. haemolytica (e.g., 12726, 46571 and 49023, all AHDRCC; and 33396 (ATCC)); and 2) P. multocida (e.g., 34135 and 46572 (both AHDRCC) and 43137 (ATCC)). In some instances, H. somni (A700025K) pathogens were also included in the screening panel. The AHDRCC strains originated from the Zoetis BRD/SRD surveillance program and refer to the Animal Health Development and Research Culture Collection. In addition, the screen assessed S. aureus (29213 ATCC) as a representative Gram-positive isolate, E.faecalis (19433 ATCC) as a commensal gram-positive gastrointestinal bacterium and E. coli (100, 3110 and 25922 (ATCC)) for the evaluation of efflux potential. The screening panel BRD pathogens were assessed in determining antibacterial activity of the Formula (1) compounds.
All relevant BRD pathogens were initially screened at a top concentration of 64 μg/mL of a Formula (1) compound in an eleven-point dilution series. […] If an Example was purified further, the MICs moved […] essentially two dilutions across all strains tested in the screening panel.
In-Vitro MIC Model Compounds were analyzed for antibacterial activity against a panel of animal health specific gram-positive and gram-negative clinical strains by diluting compounds in DMSO to an appropriate stock concentration to determine the Minimal Inhibitory Concentration (MIC) via a semi-automated broth micro-dilution method (CLSI reference method) with QC strains and anti-microbial agent(s). Specifically, bacteria were grown overnight on TSA w/5% sheep blood agar plates and diluted in saline buffer to a McFarland Standard 0.5, then further diluted in cation-ion adjusted Mueller Hinton Broth to a final concentration of approximately 5×10^5 CFU/mL. 100 μL of inoculated media was added to 96-well plate(s) with 3 μL of serially diluted compound in each row. Depending on strain (see CLSI reference method), bacteria were incubated 18-22 hours at 35-37° C. in ambient air, with 5% CO2 or anaerobically (up to 48 hours).

Some results are limits rather than exact numbers.

In the case of `CC[C@H]1OC(=O)[C@H](C)[C@@H](O)[C@H](C)[C@@H](O[C@@H]2O[C@H](C)C[C@H](N(C)S(=O)(=O)c3ccccc3)[C@H]2Oc2ccccc2)[C@](C)(O)C[C@@H](C)CN(C)[C@H](C)[C@@H](O)[C@]1(C)O` [Example A-3, N-((2S,3R,4S,6R)-2-(((2R,3S,4R,5R,8R,10R,11R,12S,13S,14R)-2-ethyl-3,4, 10,13-tetrahydroxy-3,5,6,8,10, 12,14-heptamethyl-15-oxo-1-oxa-6-azacyclopentadecan-11-yl)oxy)-6-methyl-3-phenoxytetrahydro-2H-pyran-4-yl)-N-methylbenzenesulfonamide], the minimal effective concentration – broadly, the smallest amount tested that counted as effective – in the test with IL-1β (top concentration 250 μM) came to 14 µM. For the same molecule, the results for the half-maximal inhibitory concentration (IC50) in the test with IL-6 and in the test with TNF-α (top drug concentration 250 μM) were 43 µM and 23 µM, respectively. In the test on P. multocida 46572, the “% Survival” value came out at 24%.
Molecule `CCCNC[C@]1(O)[C@H](C)O[C@@H](O[C@H]2[C@H](C)[C@@H](O[C@@H]3O[C@H](C)C[C@H](N(C)S(=O)(=O)N(C)C4CCCCC4)[C@H]3O)[C@](C)(O)C[C@@H](C)CN[C@H](C)[C@@H](O)[C@](C)(O)[C@@H](CC)OC(=O)[C@@H]2C)C[C@@]1(C)OC` [Example B-49, (2R,3S,4R,5R,8R,10R,11R,12S,13S,14R)-11-[(2S,3R,4S,6R)-4-[[cyclohexyl(methyl)sulfamoyl]-methylamino]-3-hydroxy-6-methyloxan-2-yl]oxy-2-ethyl-3,4,10-trihydroxy-13-[(2R,4R,5S,6S)-5-hydroxy-4-methoxy-4,6-dimethyl-5-(propylaminomethyl)oxan-2-yl]oxy-3,5,8,10,12,14-hexamethyl-1-oxa-6 azacyclopentadecan-15-one] registered a minimal effective concentration with IL-1β (top concentration 250 μM) of 6 µM. In addition, the IC50 – broadly, the midpoint of a concentration-inhibition curve – was found to be 16 µM in the test with IL-6 and 37 µM with TNF-α (top drug concentration 250 μM). Moreover, the “% Survival” value with P. multocida 46572 stood at 53%.
The matching figures for `CC[C@H]1OC(=O)[C@H](C)[C@@H](O[C@H]2C[C@@](C)(OC)[C@](O)(CNCCCN3CCCCC3)[C@H](C)O2)[C@H](C)[C@@H](O[C@@H]2O[C@H](C)C[C@H](N(C)S(=O)(=O)c3ccc(Cl)cc3)[C@H]2O)[C@](C)(O)C[C@@H](C)CN[C@H](C)[C@@H](O)[C@]1(C)O` [Example B-58, 4-chloro-N-((2S,3R,4S,6R)-2-(((2R,3S,4R,5R,8R,10R,11R,12S,13S, 14R)-2-ethyl-3,4,10-trihydroxy-13-(((2R,4R,5S,6S)-5-hydroxy-4-methoxy-4,6-dimethyl-5-(((3-(piperidin-1-yl)propyl)amino)methyl)tetrahydro-2H-pyran-2-yl)oxy)-3,5,8,10,12,14-hexamethyl-15-oxo-1-oxa-6-azacyclopentadecan-11-yl)oxy)-3-hydroxy-6-methyltetrahydro-2H-pyran-4-yl)-N-methylbenzenesulfonamide]: 40 µM, 75 µM, 29 µM and 32%.
In the test with IL-1β (dose of 500 μM (footnote ^)), `CCCNC[C@]1(O)[C@H](C)O[C@@H](O[C@H]2[C@H](C)[C@@H](O[C@@H]3O[C@H](C)C[C@H](N(C)S(=O)(=O)c4ccc(Cl)cc4)[C@H]3O)[C@](C)(O)C[C@@H](C)CN[C@H](C)[C@@H](O)[C@](C)(O)[C@@H](CC)OC(=O)[C@@H]2C)C[C@@]1(C)OC` [Example B-60, 4-chloro-N-((2S,3R,4S,6R)-2-(((2R,3S,4R,5R,8R,10R,11R, 12S,13S, 14R)-2-ethyl-3,4,10-trihydroxy-13-(((2R,4R,5S,6S)-5-hydroxy-4-methoxy-4,6-dimethyl-5-((propylamino)methyl)tetrahydro-2H-pyran-2-yl)oxy)-3,5,8, 10, 12, 14-hexamethyl-15-oxo-1-oxa-6-azacyclopentadecan-11-yl)oxy)-3-hydroxy-6-methyltetrahydro-2H-pyran-4-yl)-N-methylbenzenesulfonamide] came in with a minimal effective concentration of 13 µM. The molecule also gave a 50% inhibitory concentration (IC50) with TNF-α (dose of 500 μM (footnote ^)) of 5 µM. The “% Survival” value in the test with P. multocida 46572 was 37%.
The molecule `CCCNC[C@]1(O)[C@H](C)OC(O[C@H]2[C@H](C)[C@@H](O[C@@H]3O[C@H](C)C[C@H](N(C)S(=O)(=O)c4nccn4C)[C@H]3Oc3ccc(F)cc3)[C@](C)(O)C[C@@H](C)CN[C@H](C)[C@@H](O)[C@](C)(O)[C@@H](CC)OC(=O)[C@@H]2C)C[C@@]1(C)OC` (stereo partly drawn) [Example B-107, N-[(2S,3R,4S,6R)-2-[[(2R,3S,4R,5R,8R,10R,11R,12S,13S, 14R)-2-ethyl-3,4,10-trihydroxy-13-[(4R,5S,6S)-5-hydroxy-4-methoxy-4,6-dimethyl-5-(propylaminomethyl)oxan-2-yl]oxy-3,5,8, 10, 12, 14-hexamethyl-15-oxo-1-oxa-6-azacyclopentadec-11-yl]oxy]-3-(4-fluorophenoxy)-6-methyloxan-4-yl]-N, 1-dimethylimidazole-2-sulfonamide] came in with a minimal effective concentration in the test with IL-1β (top concentration 250 μM) of 2 µM. The concentration for half-maximal inhibition (IC50) worked out at 9 µM in the test on IL-6 and 22 µM with TNF-α (top drug concentration 250 μM). The “% Survival” value in the test on P. multocida 46572 was 82%.
The matching figures for `CCCNC[C@]1(O)[C@H](C)O[C@@H](O[C@H]2[C@H](C)[C@@H](O[C@@H]3O[C@H](C)C[C@H](N(Cc4ccc(OC)cc4)S(=O)(=O)c4ccccc4)[C@H]3O)[C@](C)(O)C[C@@H](C)CN[C@H](C)[C@@H](O)[C@](C)(O)[C@@H](CC)OC(=O)[C@@H]2C)C[C@@]1(C)OC` [Example B-148, N-((2S,3R,4S,6R)-2-(((2R,3S,4R,5R,8R,10R,11R,12S,13S,14R)-2-ethyl-3,4,10-trihydroxy-13-(((2R,4R,5S,6S)-5-hydroxy-4-methoxy-4,6-dimethyl-5-((propylamino)methyl)tetrahydro-2H-pyran-2-yl)oxy)-3,5,8,10, 12, 14-hexamethyl-15-oxo-1-oxa-6-azacyclopentadecan-11-yl)oxy)-3-hydroxy-6-methyltetrahydro-2H-pyran-4-yl)-N-(4-methoxybenzyl)benzenesulfonamide]: 2 µM, 4 µM, 2 µM and 68%.
On to `CCN1CCN(c2cc3c(cc2F)c(=O)c(C(=O)O)cn3C2CC2)CC1` [enrofloxacin], for which the “MIC values, range” value against H. somni was under 0.06 to 1 µg/mL.
Consider `CS(=O)(=O)c1ccc([C@@H](O)[C@@H](CF)NC(=O)C(Cl)Cl)cc1` [florfenicol], for which the “MIC values, range” value in the test with H. somni fell in the range of 0.12 to 2 µg/mL.
